As usually defined, the IC50 is the concentration needed to halve the response being measured.

In the assay the target is T1, human CCR6 (Homo sapiens, UniProt P51684).
T1 construct: expressed in transfected cells; host or cells: HEK-293
T1 sequence (P51684 1-374): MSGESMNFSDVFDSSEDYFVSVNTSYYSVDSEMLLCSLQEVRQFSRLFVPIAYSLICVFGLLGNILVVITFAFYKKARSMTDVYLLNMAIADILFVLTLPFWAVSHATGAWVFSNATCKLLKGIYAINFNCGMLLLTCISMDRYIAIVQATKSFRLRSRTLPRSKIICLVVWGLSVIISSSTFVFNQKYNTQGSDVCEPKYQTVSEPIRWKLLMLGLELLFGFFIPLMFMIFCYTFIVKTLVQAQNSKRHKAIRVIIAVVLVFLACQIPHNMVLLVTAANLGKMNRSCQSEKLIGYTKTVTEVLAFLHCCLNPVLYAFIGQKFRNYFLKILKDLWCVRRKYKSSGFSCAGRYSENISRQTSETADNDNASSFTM
Description: FLIPR assay: inhibition of CCL20-induced calcium signal in HEK-293 cells expressing human CCR6. In kind it is cell-based. As to conditions: engineered HEK-293 cells expressing human CCR6; agonist CCL20 10 nM; 30 min preincubation; Fluo-8-AM; mean values if determined several times. On the procedure:
FLIPR assay: The bioactivity of compounds is tested in a fluorometric imaging plate reader (FLIPR: Molecular Devices) using engineered HEK-293 cells expressing the human CCR6 (GenBank: AY242126). Frozen cells are plated on Poly-L-Lysine precoated 384-well plates 2 days prior to bioassay in DMEM medium supplemented with 10% FCS and 1% Penicillin-Streptomycin. At the day of bioassay, cell supernatant is discarded and cells are dye loaded for 30 minutes at room temperature in the dark with Fluo-8-AM (Focus Biomolecules) in Hanks Balanced Salt Solution (Gibco), buffered with 20 mM Hepes at pH 6.75 and supplemented with 0.05% BSA. This buffer, but lacking the dye, is also used for washing and compound dilution steps (assay buffer). Cells are washed free of excess dye with a wash-station (Biotek), leaving 40 microliter of assay buffer at the end. Cells were incubated for 15 minutes at room temperature in the dark, before adding compounds. Stock solutions of test compounds are made up at a concentration of 10 mM in DMSO, and serially diluted first in DMSO and then transferred in assay buffer to concentrations required for inhibition dose response curves. After a 45 minute incubation period in assay buffer at room temperature, 10 microliters of each compound dilution are transferred from a compound plate to the plate containing the recombinant cells in the FLIPR instrument according to the manufacturer's instructions. After cells and compounds were preincubated for 30 minutes at room temperature in the dark, 10 microliter agonist CCL20 (Peprotech) at a final concentration of 10 nM is added, again using the FLIPR instrument. Changes in fluorescence are monitored before and after addition of the test compounds and agonist. Emission peak values above base level after CCL20 addition are exported after base line subtraction. The calculated IC50 values may fluctuate depending on the daily assay performance. Fluctuations of this kind are known to those skilled in the art. In the case where IC50 values have been determined several times for the same compound, mean values are given.
Take `CN1CC(C)([C@](O)(c2ccc(CC(F)(F)F)cc2)c2cncc(-c3nc(C4CCOCC4)n(C4CC4)n3)c2)C1` [Example 5, (R)-{5-[1-Cyclopropyl-5-(tetrahydro-pyran-4-yl)-1H-[1,2,4]triazol-3-yl]-pyridin-3-yl}-(1,3-dimethyl-azetidin-3-yl)-[4-(2,2,2-trifluoro-ethyl)-phenyl]-methanol]: the IC50 turned out to be 182 nM.
In the case of `CC(C)c1ccc([C@](O)(c2cncc(-c3nc(C4CCOCC4)n(C4CC4)n3)c2)C2(C)CN(C(C)C)C2)cc1` [Example 34, (R)-{5-[1-Cyclopropyl-5-(tetrahydro-pyran-4-yl)-1H-[1,2,4]triazol-3-yl]-pyridin-3-yl}-(1-isopropyl-3-methyl-azetidin-3-yl)-(4-isopropyl-phenyl)-methanol], the IC50 was determined as 63.8 nM.
On to `CC(C)c1ccc([C@](O)(c2cncc(-c3nc([C@H]4CC[C@H](O)CC4)n(C4CC4)n3)c2)C2(C)CN(C)C2)cc1` [Example 8, trans-4-(2-Cyclopropyl-5-{5-[(R)-(1,3-dimethyl-azetidin-3-yl)-hydroxy-(4-isopropyl-phenyl)-methyl]-pyridin-3-yl}-2H-[1,2,4]triazol-3-yl)-cyclohexanol], for which the IC50 turned out to be 98.5 nM.
As for `CC(C)c1ccc([C@](O)(c2cncc(-c3nc(C4CCOCC4)n(C4CCCCC4)n3)c2)C2(C)CN(C)C2)cc1` [Example 15, (R)-{5-[1-Cyclohexyl-5-(tetrahydro-pyran-4-yl)-1H-[1,2,4]triazol-3-yl]-pyridin-3-yl}-(1,3-dimethyl-azetidin-3-yl)-(4-isopropyl-phenyl)-methanol], the figure is 16.8 nM; as for `CC(C)c1ccc([C@](O)(c2cncc(-c3nc(C4CCOCC4)n(C4CCC4)n3)c2)C2(C)CN(C)C2)cc1` [Example 23, (R)-{5-[1-Cyclobutyl-5-(tetrahydro-pyran-4-yl)-1H-[1,2,4]triazol-3-yl]-pyridin-3-yl}-(1,3-dimethyl-azetidin-3-yl)-(4-isopropyl-phenyl)-methanol], 57.8 nM.
As for `CC(C)c1ccc([C@](O)(c2cncc(-c3nc(C4CCOCC4)n(C(C)(C)C)n3)c2)C2(C)CN(C)C2)cc1` [Example 21, (R)-{5-[1-tert-Butyl-5-(tetrahydro-pyran-4-yl)-1H-[1,2,4]triazol-3-yl]-pyridin-3-yl}-(1,3-dimethyl-azetidin-3-yl)-(4-isopropyl-phenyl)-methanol], the figure is 39.9 nM; as for `CC(C)c1ccc([C@](O)(c2cncc(-c3nc([C@@](C)(O)C(F)(F)F)n(C4CC4)n3)c2)C2(C)CN(C)C2)cc1` [Example 9, (R)-2-(2-Cyclopropyl-5-{5-[(R)-(1,3-dimethyl-azetidin-3-yl)-hydroxy-(4-isopropyl-phenyl)-methyl]-pyridin-3-yl}-2H-[1,2,4]triazol-3-yl)-1,1,1-trifluoro-propan-2-ol], 22.2 nM; as for `CN1CC(C)([C@](O)(c2ccc(C3(C(F)(F)F)CC3)cc2)c2cncc(-c3nc(C4CCOCC4)n(C4CC4)n3)c2)C1` [Example 3, (R)-{5-[1-Cyclopropyl-5-(tetrahydro-pyran-4-yl)-1H-[1,2,4]triazol-3-yl]-pyridin-3-yl}-(1,3-dimethyl-azetidin-3-yl)-[4-(1-trifluoromethyl-cyclopropyl)-phenyl]-methanol], 49.8 nM.
Take `CN1CC(C)([C@](O)(c2ccc(C(C)(C)C)cc2)c2cncc(-c3nc(C4CCOCC4)n(C4CC4)n3)c2)C1` [Example 2, (R)-(4-tert-Butyl-phenyl)-{5-[1-cyclopropyl-5-(tetrahydro-pyran-4-yl)-1H-[1,2,4]triazol-3-yl]-pyridin-3-yl}-(1,3-dimethyl-azetidin-3-yl)-methanol]: the IC50 was 81.1 nM.
The figure for `CN1CC(C)([C@](O)(c2ccc(C3CC3)cc2)c2cncc(-c3nc(C4CCOCC4)n(C4CC4)n3)c2)C1` [Example 25, (R)-(4-Cyclopropyl-phenyl)-{5-[1-cyclopropyl-5-(tetrahydro-pyran-4-yl)-1H-[1,2,4]triazol-3-yl]-pyridin-3-yl}-(1,3-dimethyl-azetidin-3-yl)-methanol] is 163 nM.
In the case of `CC(C)c1ccc([C@](O)(c2cncc(-c3nc(CC4(O)CCC4)n(C4CC4)n3)c2)C2(C)CN(C)C2)cc1` [Example 12, 1-(2-Cyclopropyl-5-{5-[(R)-(1,3-dimethyl-azetidin-3-yl)-hydroxy-(4-isopropyl-phenyl)-methyl]-pyridin-3-yl}-2H-[1,2,4]triazol-3-ylmethyl)-cyclobutanol], the IC50 is 114 nM.
With `CC(=O)N1CCC(c2nc(-c3cncc([C@@](O)(c4ccc(C(C)C)cc4)C4(C)CN(C)C4)c3)nn2C2CC2)CC1` [Example 32, 1-[4-(2-Cyclopropyl-5-{5-[(R)-(1,3-dimethyl-azetidin-3-yl)-hydroxy-(4-isopropyl-phenyl)-methyl]-pyridin-3-yl}-2H-[1,2,4]triazol-3-yl)-piperidin-1-yl]-ethanone], the IC50 is 181 nM.
With `COC(=O)C12CCC(c3nc(-c4cncc([C@@](O)(c5ccc(C(C)C)cc5)C5(C)CN(C)C5)c4)nn3C3CC3)(CC1)CC2` [Example 10, 4-(2-Cyclopropyl-5-{5-[(R)-(1,3-dimethyl-azetidin-3-yl)-hydroxy-(4-isopropyl-phenyl)-methyl]-pyridin-3-yl}-2H-[1,2,4]triazol-3-yl)-bicyclo[2.2.2]octane-1-carboxylic acid methyl ester], the IC50 is 43.9 nM.
Consider `CC(C)c1ccc([C@](O)(c2cncc(-c3nc(C4CCN(C)C(=O)C4)n(C(C)C)n3)c2)C2(C)CN(C)C2)cc1` (stereo partly drawn) [Example 42, 4-(5-{5-[(R)-(1,3-Dimethyl-azetidin-3-yl)-hydroxy-(4-isopropyl-phenyl)-methyl]-pyridin-3-yl}-2-isopropyl-2H-[1,2,4]triazol-3-yl)-1-methyl-piperidin-2-one], for which the IC50 amounted to 200 nM.
Turning to `CCn1nc(-c2cncc([C@@](O)(c3ccc(C(C)C)cc3)C3(C)CN(C)C3)c2)nc1C1CCOCC1` [Example 18, (R)-(1,3-Dimethyl-azetidin-3-yl)-{5-[1-ethyl-5-(tetrahydro-pyran-4-yl)-1H-[1,2,4]triazol-3-yl]-pyridin-3-yl}-(4-isopropyl-phenyl)-methanol], the half-inhibitory concentration (IC50) came to 166 nM.
Consider `Cc1ncc([C@@](O)(c2ccc(C(C)C)cc2)C2(C)CN(C)C2)cc1-c1nc([C@H]2CC[C@H](O)CC2)n(C2CC2)n1` [Example 40, 4-(2-Cyclopropyl-5-{5-[(R)-(1,3-dimethyl-azetidin-3-yl)-hydroxy-(4-isopropyl-phenyl)-methyl]-2-methyl-pyridin-3-yl}-2H-[1,2,4]triazol-3-yl)-trans-cyclohexanol], for which the half-maximal inhibitory concentration (IC50) turned out to be 202 nM.
Take `CC(C)c1ccc([C@](O)(c2cncc(-c3nc(C4CCOCC4)n(C4CC4)n3)c2)C2(C)CN(CCO)C2)cc1` [Example 36, 2-{3-[(R)-{5-[1-Cyclopropyl-5-(tetrahydro-pyran-4-yl)-1H-[1,2,4]triazol-3-yl]-pyridin-3-yl}-hydroxy-(4-isopropyl-phenyl)-methyl]-3-methyl-azetidin-1-yl}-ethanol]: the IC50 was 116 nM.
Turning to `CC(C)c1ccc([C@](O)(c2cncc(-c3nc(C4CCOCC4)n(CCO)n3)c2)C2(C)CN(C)C2)cc1` [Example 17, 2-[3-{5-[(R)-(1,3-Dimethyl-azetidin-3-yl)-hydroxy-(4-isopropyl-phenyl)-methyl]-pyridin-3-yl}-5-(tetrahydro-pyran-4-yl)-[1,2,4]triazol-1-yl]-ethanol], the IC50 is 509 nM.
On to `CC(C)c1ccc([C@](O)(c2cncc(-c3nc(C4CCOCC4)n(C)n3)c2)C2(C)CN(C)C2)cc1` [Example 16, (R)-(1,3-Dimethyl-azetidin-3-yl)-(4-isopropyl-phenyl)-{5-[1-methyl-5-(tetrahydro-pyran-4-yl)-1H-[1,2,4]triazol-3-yl]-pyridin-3-yl}-methanol], for which the IC50 came to 221 nM.
The figure for `CN1CC(C)([C@](O)(c2ccc(OC(F)(F)F)cc2)c2cncc(-c3nc(C4CCOCC4)n(C4CC4)n3)c2)C1` [Example 4, (R)-{5-[1-Cyclopropyl-5-(tetrahydro-pyran-4-yl)-1H-[1,2,4]triazol-3-yl]-pyridin-3-yl}-(1,3-dimethyl-azetidin-3-yl)-(4-trifluoromethoxy-phenyl)-methanol] is 114 nM.
